Laboratory results: patent EP3120851A1, “4-AMINO-6-(2,6-DICHLOROPHENYL)-8-METHYL-2-(PHENYLAMINO)-PYRIDO[2,3-D]PYRIMIDIN-7(8H)-ONE FOR TREATMENT OF SOLID CANCERS” (Pangaea Biotech S.L., priority 2015, dated 2017)
Read-outs that look alike come from different tables or passages of the source.

Legend:
[1] = system: HCC78 cells; assay: MTT cell viability assay, combinations (Chou-Talalay method); format: cell-based; details: Homo sapiens
Experimental: (§1) The combinations comprising the compound of formula (1) were tested using an MTT proliferation assay in a panel of tumor cell lines of different origins. All culture materials were obtained from the sources described in Example 2. In the Chou-Talalay method, which is the standard, universally known methodology to determine drug interactions, the two drugs under study are maintained at a fixed ratio of IC50 single agent (drug 1):IC50 single agent (drug 2) while the concentration of total amount of drugs in the combination is varied and the 20% (IC20), 50% (IC50) and 80% (IC80) of growth inhibition of the combination is determined.
(§2) In the activity assays on cell lines the following terms are used: • IC50: Drug concentration at which 50% growth inhibition is achieved. • TKI IC50: The IC50 of the tyrosine kinase inhibitor as single agent. • Compound (1) IC50: The IC50 of compound (1) as single agent. • CI@IC20: The combination index of the combination consisting of drug 1 and drug 2 at a weight ratio equal to IC50 of drug 1:IC50 of drug 2 wherein said combination is used at a total amount that achieves 20% of growth inhibition. • CI@IC50: The combination index of the combination consisting of drug 1 and drug 2 at a weight ratio equal to IC50 of drug 1:IC50 of drug 2, wherein said combination is used at a total amount that achieves 50% of growth inhibition. • CI@IC80: The combination index of the combination consisting of drug 1 and drug 2 at a weight ratio equal to IC50 of drug 1:IC50 of drug 2, wherein said combination is used at a total amount that achieves 80% of growth inhibition. • Combination TKI IC50: The combination index at a tyrosine kinase inhibitor concentration that corresponds to the IC50 (single agent). • The combination index (CI) concept was introduced by Chou T.C. and Talalay P.(Chou TC, Talalay P. Adv Enzyme Regul 1984;22:27-55). The derived combination index equation for two drugs is (D = dosage or concentration): CI = ((D)1)/((Dx)1) + ((D)2)/((Dx)2) [formula] where (Dx)1 is the concentration of drug 1 "alone" that inhibits growth at a x% (i.e. (D50)1 is the concentration of drug 1 "alone" that inhibits growth at a 50%), (Dx)2 is the concentration of drug 2 "alone" that inhibits growth at a x%, (D)1 and (D)2 refer to the concentration of drug 1 and drug 2, respectively, in the combination, wherein the combination inhibits growth at the same x%. The CI Value quantitatively defines synergism (CI<1) (in particular, CI values of CI<0.7 indicates strong synergism, 0.7<CI<0.85 indicates moderate synergism, 0.85<CI<1 indicates slight synergism), additive effect (CI=1) and antagonism (CI>1). Based on the above equation, a plot of CI values at different effect levels (fa's) can be determined. Entering a series of "dose" ((D1), (D2), ((Dx)1 and (Dx)2) and % of growth inhibition (%x or effect (fa))" into an excel sheet for each drug alone and their combinations, the CI values at different x% (or fa levels) are obtained using the above equation. This plot is also called the Fa-CI plot or the Chou-Talalay plot.
(§3) Cell viability in response to combination treatment was assessed by the Thiazolyl Blue Tetrazolium Bromide (MTT) (Sigma, St Louis, MO) assay. Cells from each cell line were seeded at 2000 to 10000 per well in 96-well plates. […] Twenty-four hours after seeding, cells were exposed to compound (1), commercial drug or combinations thereof for 72 h. In the Chou-Talalay method, which is the standard, universally known methodology to determine drug interactions, the two drugs under study are maintained at a fixed ratio IC50 single agent (drug 1):IC50 single agent (drug 2).
(§4) After treatment, cells were incubated with medium containing MTT (0.75 mg/mL in medium) for 1-2 h at 37°C. Culture medium with MTT was removed and formazan crystals reabsorbed in 100 µL DMSO (Sigma, St. Louis, MO). Cell viability was determined by measuring the absorbance at 492 nm, using a microplate reader (BioWhittaker, Walkersville, MD).

[2] = system: H3122 Cells; assay: as above; format: cell-based; details: Homo sapiens
Experimental: as §1, §2, §3, §4

[3] = system: H2228 Cells; assay: as above; format: cell-based; details: Homo sapiens, NCI-H2228
Experimental: as §1, §2, §3, §4

[4] = system: mantle cell lymphoma (MCL) cell lines; details: Eur. J. Med. Chem., 2014, 86, 664-675; cited from earlier work
[5] = system: UACC903; assay: MTT proliferation assay, single agent; format: cell-based; details: Homo sapiens, UACC-903, Melanoma, BRAF V600E, 72 h, mean of several independent experiments

IC50 ([1]; HCC78, 72 h, HCC78 cells, compound (1) as single agent, 72 h, read-out: Compound (1) IC50): 800 nM | IC50 ([1]; HCC78, HCC78 cells, compound (1) in combination with Crizotinib, read-out: Combination Compound (1) IC50): 430 nM | IC50 ([1]; HCC78, HCC78 cells, compound (1) in combination with Foretinib, read-out: Combination Compound (1) IC50): 210 nM | IC50 ([2]; NCI-H3122, 72 h, H3122 cells, compound (1) as single agent, 72 h, read-out: Compound (1) IC50): 1300 nM | IC50 ([2]; NCI-H3122, H3122 cells, compound (1) in combination with Alectinib, read-out: Combination Compound (1) IC50): 240 nM | IC50 ([2]; NCI-H3122, H3122 cells, compound (1) in combination with Crizotinib, read-out: Combination Compound (1) IC50): 500 nM | IC50 ([3]; H2228 cells, compound (1) as single agent, 72 h, read-out: Compound (1) IC50): 809 nM | IC50 ([3]; read-out: Combination Compound (1) IC50): 410 nM
Compound: Cn1c(=O)c(-c2c(Cl)cccc2Cl)cc2c(N)nc(Nc3ccccc3)nc21 [Compound (1), 4-amino-6-(2,6-dichlorophenyl)-8-methyl-2-(phenylamino)-pyrido[2,3-d]pyrimidin-7(8H)-one]
cytostatic activity [4]: good cytostatic activity | IC50 [5]: 3350 nM
